Measurements as given in ChEMBL document CHEMBL5042495, “Lead Optimization of Influenza Virus RNA Polymerase Inhibitors Targeting PA-PB1 Interaction” (J Med Chem, 2022).

Columns and labels:
[1] = Cytotoxicity in dog MDCK cells assessed as reduction in cell viability incubated for 48 hrs by crystal violet staining based assay; format: toxicity, Canis lupus familiaris
[2] = tested on: Influenza A virus; assay: Antiviral activity against Influenza A virus A/WSN/33(H1N1) strain infected in MDCK cells assessed as reduction in viral infection incubated for 48 hrs by crystal violet staining based assay; format: functional, organism-based

Structure (SMILES)	CC50 at 48 h [1] [µM]	EC50 [2] [µM]
Cc1ccc2cc(CN(Cc3ccc(C(C)(C)C)cc3)C3CCCC3)c(=O)[nH]c2c1	> 10	–
COc1ccc([C@H](C)N(Cc2ccc(C(C)(C)C)cc2)Cc2cc3ccccc3[nH]c2=O)cc1	1.8	–
COc1ccc(C(C)N(Cc2ccc(C(C)(C)C)cc2)Cc2cc3cc(C4CC4)ccc3[nH]c2=O)cc1Cl (centres undefined)	> 10	0.069
CCc1ccc2[nH]c(=O)c(CN(Cc3ccc(F)cc3)Cc3ccc(C(C)(C)C)cc3)cc2c1	> 33	0.64
CCc1ccc2[nH]c(=O)c(CN(Cc3ccc(OC(F)F)cc3)Cc3ccc(C(C)(C)C)cc3)cc2c1	> 5	0.46
CCc1ccc2[nH]c(=O)c(CN(Cc3ccc(C(C)(C)C)cc3)C(C)c3ccc(F)cc3)cc2c1 (centres undefined)	2.8	0.52
Cc1ccc2[nH]c(=O)c(CN(Cc3ccccc3)Cc3ccc(C(C)(C)C)cc3)cc2c1	> 5	0.92
CC(c1ccc(OC(F)(F)F)c(Cl)c1)N(Cc1ccc(C(C)(C)C)cc1)Cc1cc2cc(Br)ccc2[nH]c1=O (centres undefined)	> 10	0.28
Cc1ccc2cc(C(C#N)N(Cc3ccc(F)cc3)Cc3ccc(C(C)C)cc3)c(=O)[nH]c2c1 (centres undefined)	21	54
CCc1ccc2[nH]c(=O)c(CN(Cc3ccc(F)cc3)Cc3ccc4ccccc4c3)cc2c1	> 5	2.1
COc1ccc([C@H](C)N(Cc2ccc(OC(F)(F)F)cc2)Cc2cc3cc(Cl)ccc3[nH]c2=O)cc1	> 10	3.6
CCc1ccc2[nH]c(=O)c(CN(Cc3ccc(C(C)(C)C)cc3)[C@H](CO)c3ccccc3)cc2c1	> 10	–
Cc1ccc2[nH]c(=O)c(CN(Cc3ccc(SC(F)F)cc3)Cc3ccc(C(C)(C)C)cc3)cc2c1	> 5	0.65
CCc1ccc2[nH]c(=O)c(CN(Cc3ccc(F)cc3)Cc3ccc(-c4ccccc4)cc3)cc2c1	> 5	–
Cc1ccc2[nH]c(=O)c(CN(Cc3ccc(OC(F)F)cc3)Cc3ccc(C(C)(C)C)cc3)cc2c1	> 5	0.27
CCCCOc1ccc(CN(Cc2ccc(C(C)(C)C)cc2)Cc2cc3cc(C)ccc3[nH]c2=O)cc1	> 5	–
CC(c1ccc(N(C)C)c(Cl)c1)N(Cc1ccc(C(C)(C)C)cc1)Cc1cc2cc(Br)ccc2[nH]c1=O (centres undefined)	6.1	0.1
Cc1ccc2[nH]c(=O)c(CN(Cc3ccc(C(C)(C)C)cc3)C(C)c3ccc(OC(F)F)cc3)cc2c1 (centres undefined)	> 5	0.36
CCc1ccc2[nH]c(=O)c(CN(Cc3cccc(F)c3)Cc3ccc4ccccc4c3)cc2c1	> 5	4.1
Cc1ccc2cc(CN(Cc3ccc(F)cc3)Cc3ccc(C(C)(C)C)cc3)c(=O)[nH]c2c1	> 33	1.6
Cc1ccc2[nH]c(=O)c(CN(Cc3ccc(C(C)(C)C)cc3)[C@@H](C)c3ccc(F)cc3)cc2c1	> 5	0.5
Cc1ccc2cc(CN(Cc3ccc(C(C)(C)C)cc3)Cc3cc(F)cc(F)c3)c(=O)[nH]c2c1	> 33	3.5
CCc1ccc2[nH]c(=O)c(CN(Cc3ccc(C(C)(C)C)cc3)C(C)c3ccc(OC)c(Cl)c3)cc2c1 (centres undefined)	> 10	0.17
CCCOc1ccc(CN(Cc2ccc(C(C)(C)C)cc2)Cc2cc3cc(C)ccc3[nH]c2=O)cc1	> 5	3
CSc1ccc(CN(Cc2ccc(C(C)(C)C)cc2)Cc2cc3cc(C)ccc3[nH]c2=O)cc1	> 5	0.51

Structure (SMILES)	CC50 at 48 h [1] [µM]	EC50 [2] [µM]
CCc1ccc2[nH]c(=O)c(CN(Cc3ccc(C(C)(C)C)cc3)C(C)c3ccc(OC(F)F)cc3)cc2c1 (centres undefined)	> 5	0.32
Cc1ccc2[nH]c(=O)c(CN(Cc3ccc(C(C)(C)C)cc3)C(C)c3ccc(F)cc3)cc2c1 (centres undefined)	> 33	1.3
Cc1ccc2cc(C(C#N)N(Cc3ccccc3)Cc3ccc(C(C)C)cc3)c(=O)[nH]c2c1 (centres undefined)	> 83	5.6
CC(C)c1ccc2[nH]c(=O)c(CN(Cc3ccc(C(C)(C)C)cc3)C(C)c3ccc(N(C)C)c(Cl)c3)cc2c1 (centres undefined)	> 10	0.68
Cc1ccc2cc(CNCc3ccc(F)cc3)c(=O)[nH]c2c1	> 33	–
CCc1ccc2[nH]c(=O)c(CN(Cc3ccc(C(C)(C)C)cc3)C(C)c3ccc(OC)cc3)cc2c1 (centres undefined)	> 5	0.22
Cc1ccc2[nH]c(=O)c(CN(Cc3ccc(OCC(=O)O)cc3)Cc3ccc(C(C)(C)C)cc3)cc2c1	> 10	2.7
Cc1ccc2cc(CN(Cc3ccc(Cl)cc3)Cc3ccc(C(C)C)cc3)c(=O)[nH]c2c1	> 33	6.1
Cc1cccc2cc(C(C#N)N(Cc3ccccc3)Cc3ccc(C(C)C)cc3)c(=O)[nH]c12 (centres undefined)	> 83	16
CCc1ccc2[nH]c(=O)c(CN(Cc3ccc(OCOC)cc3)Cc3ccc(C(C)(C)C)cc3)cc2c1	> 10	1
COc1ccc([C@H](C)N(Cc2ccc(C(C)(C)C)cc2)Cc2cc3cc(OC)ccc3[nH]c2=O)cc1	4.1	0.12
Cc1ccc2[nH]c(=O)c(C(C#N)N(Cc3ccccc3)Cc3ccc(C(C)C)cc3)cc2c1 (centres undefined)	> 83	15
Cc1cccc2cc(C(C#N)N(Cc3ccccc3)Cc3ccc(F)cc3)c(=O)[nH]c12 (centres undefined)	> 83	38
CCCc1ccc2[nH]c(=O)c(CN(Cc3ccc(F)cc3)Cc3ccc(C(C)(C)C)cc3)cc2c1	8.4	28
CCc1ccc2[nH]c(=O)c(CN(Cc3ccc(C(C)(C)C)cc3)Cc3ccc(F)c(F)c3)cc2c1	> 33	63
CCc1ccc2[nH]c(=O)c(CN(CCCO)Cc3ccc(C(C)(C)C)cc3)cc2c1	> 10	–
Cc1cccc2cc(CN(Cc3ccc(F)cc3)Cc3ccc(C(C)(C)C)cc3)c(=O)[nH]c12	–	1.8
CC(c1ccc(OC(F)(F)F)c(Cl)c1)N(Cc1ccc(C(C)(C)C)cc1)Cc1cc2cc(C3CC3)ccc2[nH]c1=O (centres undefined)	> 10	1.2
Cc1ccc2cc(CN(Cc3ccc(C(C)C)cc3)Cc3ccccc3F)c(=O)[nH]c2c1	> 33	1.8
CCOc1ccc(CN(Cc2ccc(C(C)(C)C)cc2)Cc2cc3cc(C)ccc3[nH]c2=O)cc1	> 10	0.54
CN(C)c1ccc(CN(Cc2ccc(C(C)(C)C)cc2)Cc2cc3cc(Cl)ccc3[nH]c2=O)cc1	> 10	1.5
COCOc1ccc(CN(Cc2ccc(C(C)(C)C)cc2)Cc2cc3cc(C)ccc3[nH]c2=O)cc1	6.4	0.38
Cc1ccc2cc(C(C)N(Cc3ccc(F)cc3)Cc3ccc(C(C)C)cc3)c(=O)[nH]c2c1 (centres undefined)	> 33	1.9
Cc1ccc2[nH]c(=O)c(CN(Cc3ccc(O)cc3)Cc3ccc(C(C)(C)C)cc3)cc2c1	4.9	2.1
Cc1ccc2cc(CN(Cc3ccc(F)cc3)C(=O)c3ccccc3)c(=O)[nH]c2c1	> 33	–

Structure (SMILES)	CC50 at 48 h [1] [µM]	EC50 [2] [µM]
CN(C)c1ccc(CN(Cc2ccc(C(C)(C)C)cc2)Cc2cc3cc(Br)ccc3[nH]c2=O)cc1	> 10	0.53
Cc1ccc2[nH]c(=O)c(CN(Cc3ccc(OCCO)cc3)Cc3ccc(C(C)(C)C)cc3)cc2c1	> 5	–
CCc1ccc2[nH]c(=O)c(CN(Cc3ccc(C(C)(C)C)cc3)[C@@H](C)c3ccc(F)cc3)cc2c1	> 5	0.79
CCCCC(c1cc2ccc(C)cc2[nH]c1=O)N(Cc1ccc(F)cc1)Cc1ccc(C(C)C)cc1 (centres undefined)	> 33	–
COc1ccc(C(C)N(Cc2ccc(C(C)(C)C)cc2)Cc2cc3cc(C)ccc3[nH]c2=O)cc1Cl (centres undefined)	> 10	0.11
Cc1ccc2[nH]c(=O)c(CN(Cc3ccc(OCC(=O)OC(C)(C)C)cc3)Cc3ccc(C(C)(C)C)cc3)cc2c1	> 10	1.8
Cc1ccc2[nH]c(=O)c(CN(Cc3cccc(F)c3)Cc3ccc4ccccc4c3)cc2c1	> 5	3.1
Cc1ccc2[nH]c(=O)c(CN(Cc3ccc(N(C)C)cc3)Cc3ccc(C(C)(C)C)cc3)cc2c1	> 5	0.46
CC(C)c1ccc2[nH]c(=O)c(CN(Cc3ccc(C(C)(C)C)cc3)C(C)c3ccc(F)cc3)cc2c1 (centres undefined)	13.1	5.4
COc1ccc([C@H](C)N(Cc2ccc(C(C)(C)C)cc2)Cc2cc3cc(C(C)C)ccc3[nH]c2=O)cc1	> 10	0.48
CC(c1ccc(N(C)C)c(Cl)c1)N(Cc1ccc(OC(F)(F)F)cc1)Cc1cc2cc(Br)ccc2[nH]c1=O (centres undefined)	4.7	–
CCc1ccc2[nH]c(=O)c(CN(Cc3ccc(O)cc3)Cc3ccc(C(C)(C)C)cc3)cc2c1	> 10	1.8
Cc1ccc2[nH]c(=O)c(CN(Cc3ccc(F)cc3)Cc3ccc(-c4ccccc4)cc3)cc2c1	> 5	–
Cc1ccc2[nH]c(=O)c(CN(Cc3ccc(C(N)=O)cc3)Cc3ccc(C(C)(C)C)cc3)cc2c1	> 5	–
COc1ccc(CN(Cc2ccc(C(C)(C)C)cc2)Cc2cc3ccccc3[nH]c2=O)cc1	1.8	–
CCc1ccc2cc(CN(Cc3ccc(C(C)(C)C)cc3)C3CCCC3)c(=O)[nH]c2c1	> 9	–
Cc1ccc2[nH]c(=O)c(CN(Cc3ccc(C(C)(C)C)cc3)[C@H](CO)c3ccccc3)cc2c1	> 10	–
Cc1ccc2[nH]c(=O)c(CN(Cc3ccc(C(C)(C)C)cc3)[C@H](C)c3ccc(F)cc3)cc2c1	> 5	–
Cc1ccc2cc(C(N(Cc3ccc(F)cc3)Cc3ccc(C(C)C)cc3)C(F)(F)F)c(=O)[nH]c2c1 (centres undefined)	> 33	–
CCc1ccc2[nH]c(=O)c(CN(Cc3ccc(F)cc3)Cc3cccc4ccccc34)cc2c1	> 5	–
Cc1ccc2[nH]c(=O)c(CN(CCCO)Cc3ccc(C(C)(C)C)cc3)cc2c1	> 10	–
Cc1ccc2cc(CN(Cc3ccc(Cl)cc3)Cc3ccc(Cl)cc3)c(=O)[nH]c2c1	> 33	–
CCc1ccc2[nH]c(=O)c(CN(Cc3ccc(C(C)(C)C)cc3)[C@H](C)c3ccc(F)cc3)cc2c1	> 5	–
C[C@H](c1ccc(OC(F)(F)F)cc1)N(Cc1ccc(C(C)(C)C)cc1)Cc1cc2cc(C3CC3)ccc2[nH]c1=O	–	2.01
